The text below walks through data of US20250346593A1, “IMIDAZO(1,2-1)PYRIDINE DERIVATIVES AS RIPK2 INHIBITORS” (Interline Therapeutics, Inc., priority 2022, published 2025).

SMILES strings stand for the structures. Read-outs that look alike come from different tables or passages of the source. A value given as a limit tells only on which side of the number the result lay.

Assay [1] has as its target GST-RIPK2 fusion protein (human RIPK2 amino acids 1-310) (Homo sapiens (Human), UniProt O43353). Kind of assay: RIPK2 binding competition assay (TR-FRET, Tracer 199).
Assay [2] deals with NF-κB pathway (SEAP) in THP1-Dual cells. Kind of assay: THP-1 Dual cell SEAP assay (L18-MDP stimulated). In kind it is cell-based. To be noted: Homo sapiens, THP1-Dual, read-out: NFkB THP1 IC50.
Setting [3] is: read-out: RIPK2 IC50, RIPK2 binding competition assay.

Chain of GST-RIPK2 fusion protein (human RIPK2 amino acids 1-310) (O43353 1-310): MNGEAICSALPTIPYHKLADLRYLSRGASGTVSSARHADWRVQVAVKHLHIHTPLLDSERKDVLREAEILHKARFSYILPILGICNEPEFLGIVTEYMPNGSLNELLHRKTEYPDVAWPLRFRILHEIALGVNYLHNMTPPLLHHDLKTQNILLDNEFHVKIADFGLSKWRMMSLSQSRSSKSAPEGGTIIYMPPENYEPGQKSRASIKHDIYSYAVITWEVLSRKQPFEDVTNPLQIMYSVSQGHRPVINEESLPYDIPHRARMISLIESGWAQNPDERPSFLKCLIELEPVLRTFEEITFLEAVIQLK

As usually defined, the IC50 is the concentration that inhibits the measured activity by half. Consider `COc1cc2ncc(-c3cc(N)cc(OC(F)F)c3)n2cc1S(=O)(=O)C(C)(C)C` [Example 42, 3-(6-(tert-butylsulfonyl)-7-methoxyimidazo[1,2-a]pyridin-3-yl)-5-(difluoromethoxy)aniline], for which the IC50 in assay [1] was 2.5 to 20 nM; in assay [2] it was 250 to 1000 nM.
On to `COc1cc2ncc(-c3cc(N)c(F)c(OC)c3)n2cc1S(=O)(=O)C(C)(C)C` [Example 43, 5-(6-(tert-butylsulfonyl)-7-methoxyimidazo[1,2-a]pyridin-3-yl)-2-fluoro-3-methoxyaniline], for which the results for the concentration for half-maximal inhibition (IC50) in assay [1] and in assay [2] were 2.5 to 20 nM and 50 to 250 nM, respectively.
For the compound `COc1cc2ncc(-c3cc(N)c(F)c(F)c3)n2cc1S(=O)(=O)C(C)(C)C` [Example 44, 5-(6-(tert-butylsulfonyl)-7-methoxyimidazo[1,2-a]pyridin-3-yl)-2,3-difluoroaniline], the values for the IC50 in assay [1] and in assay [2] were 2.5 to 20 nM and 50 to 250 nM, respectively.
With `COc1ccn2c(-c3cc(F)nc(F)c3)cnc2c1` [Example 45, 3-(2,6-difluoropyridin-4-yl)-7-methoxyimidazo[1,2-a]pyridine], the results for the IC50 in assay [1] (setting [3]) and in assay [2] were over 20 nM and over 1000 nM, respectively.
As to `COc1cc(N)cc(-c2cnc3cc(OC)c(S(=O)(=O)C(C)(C)C)cn23)c1` [Example 46, 3-(6-(tert-butylsulfonyl)-7-methoxyimidazo[1,2-a]pyridin-3-yl)-5-methoxyaniline], the IC50 is 2.5 to 20 nM in assay [1] and 50 to 250 nM in assay [2].
For the compound `COc1cc2ncc(-c3cc(N)c(OC)c(OC)c3)n2cc1S(=O)(=O)C(C)(C)C` [Example 47, 5-(6-(tert-butylsulfonyl)-7-methoxyimidazo[1,2-a]pyridin-3-yl)-2,3-dimethoxyaniline], the IC50 is 2.5 to 20 nM in assay [1] and over 1000 nM in assay [2].
As for `COc1cc2ncc(-c3cc(C)c(F)c(N)c3)n2cc1S(=O)(=O)C(C)(C)C` [Example 48, 5-(6-(tert-butylsulfonyl)-7-methoxyimidazo[1,2-a]pyridin-3-yl)-2-fluoro-3-methylaniline], the concentration for half-maximal inhibition (IC50) was over 20 nM in assay [1] (setting [3]) and over 1000 nM in assay [2].
As for `COCc1cc(N)cc(-c2cnc3cc(OC)c(S(=O)(=O)C(C)(C)C)cn23)c1` [Example 49, 3-(6-(tert-butylsulfonyl)-7-methoxyimidazo[1,2-a]pyridin-3-yl)-5-(methoxymethyl)aniline], the IC50 in assay [1] (setting [3]) was over 20 nM; in assay [2] it was 250 to 1000 nM.
For `COc1cc2ncc(-c3cnc(OC(F)F)c(N)c3)n2cc1S(=O)(=O)C(C)(C)C` [Example 50, 5-(6-(tert-butylsulfonyl)-7-methoxyimidazo[1,2-a]pyridin-3-yl)-2-(difluoromethoxy)pyridin-3-amine], the IC50 was over 20 nM in assay [1] (setting [3]) and over 1000 nM in assay [2].
The matching figures for `COc1cc2ncc(-c3cc(N)c(OC)c(C#N)c3)n2cc1S(=O)(=O)C(C)(C)C` [Example 51, 3-amino-5-(6-(tert-butylsulfonyl)-7-methoxyimidazo[1,2-a]pyridin-3-yl)-2-methoxybenzonitrile]: over 20 nM and over 1000 nM.
For `COc1cc2ncc(-c3cc(F)c(OC)c(N)c3F)n2cc1S(=O)(=O)C(C)(C)C` [Example 52, 3-(6-(tert-butylsulfonyl)-7-methoxyimidazo[1,2-a]pyridin-3-yl)-2,5-difluoro-6-methoxyaniline], the 50% inhibitory concentration (IC50) in assay [1] was in the range of 2.5 to 20 nM; in assay [2] it was 250 to 1000 nM.
As for `COc1cc(-c2cnc3cc(OC)c(S(=O)(=O)C(C)(C)C)cn23)cc(N)n1` [Example 53, 4-(6-(tert-butylsulfonyl)-7-methoxyimidazo[1,2-a]pyridin-3-yl)-6-methoxypyridin-2-amine], the IC50 in assay [1] was in the range of 2.5 to 20 nM; in assay [2], 50 to 250 nM.
Turning to `COc1cc2ncc(-c3cnc(OC)c(N)c3)n2cc1S(=O)(=O)C(C)(C)C` [Example 54, 5-(6-(tert-butylsulfonyl)-7-methoxyimidazo[1,2-a]pyridin-3-yl)-2-methoxypyridin-3-amine], the IC50 in assay [1] (setting [3]) was over 20 nM; in assay [2], over 1000 nM.
Regarding `COc1cc2ncc(-c3cc(C)c(OC)c(Cl)n3)n2cc1S(=O)(=O)C(C)(C)C` [Example 55, 6-(tert-butylsulfonyl)-3-(6-chloro-5-methoxy-4-methylpyridin-2-yl)-7-methoxyimidazo[1,2-a]pyridine], the IC50 in assay [1] (setting [3]) was over 20 nM; in assay [2] it was over 1000 nM.
With `COc1cc2ncc(-c3cc(F)c(OC)c(C#N)c3)n2cc1S(=O)(=O)C(C)(C)C` [Example 56, 5-(6-(tert-butylsulfonyl)-7-methoxyimidazo[1,2-a]pyridin-3-yl)-3-fluoro-2-methoxybenzonitrile], the concentration for half-maximal inhibition (IC50) in assay [1] (setting [3]) is over 20 nM; in assay [2], over 1000 nM.
`COc1cc2ncc(-c3cc(F)c(OC)c(F)c3)n2cc1S(=O)(=O)C(C)(C)C` [Example 57, 6-(tert-butylsulfonyl)-3-(3,5-difluoro-4-methoxyphenyl)-7-methoxyimidazo[1,2-a]pyridine]: the IC50 in assay [1] (setting [3]) is over 20 nM; in assay [2] it was over 1000 nM.
For `COc1cc2ncc(-c3cc(F)c(OC)c(OC)c3)n2cc1S(=O)(=O)C(C)(C)C` [Example 58, 6-(tert-butylsulfonyl)-3-(3-fluoro-4,5-dimethoxyphenyl)-7-methoxyimidazo[1,2-a]pyridine], the IC50 in assay [1] is 2.5 to 20 nM; in assay [2] it was over 1000 nM.
As for `COc1cc2ncc(-c3cc(F)c(OC)c(CCO)c3)n2cc1S(=O)(=O)C(C)(C)C` [Example 59, 2-(5-(6-(tert-butylsulfonyl)-7-methoxyimidazo[1,2-a]pyridin-3-yl)-3-fluoro-2-methoxyphenyl)ethan-1-ol], the IC50 in assay [1] was 2.5 to 20 nM; in assay [2] it was 250 to 1000 nM.
For the compound `COc1cc2ncc(-c3csnc3OC)n2cc1S(=O)(=O)C(C)(C)C` [Example 60, 4-(6-(tert-butylsulfonyl)-7-methoxyimidazo[1,2-a]pyridin-3-yl)-3-methoxyisothiazole], the IC50 in assay [1] is 2.5 to 20 nM; in assay [2] it was over 1000 nM.
On to `COc1cc2ncc(-c3cc(F)cc(F)n3)n2cc1S(=O)(=O)C(C)(C)C` [Example 61, 6-(tert-butylsulfonyl)-3-(4,6-difluoropyridin-2-yl)-7-methoxyimidazo[1,2-a]pyridine], for which the figures for the IC50 in assay [1] (setting [3]) and in assay [2] were over 20 nM and 250 to 1000 nM, respectively.
For the compound `CCOc1ncc(-c2cnc3cc(OC)c(S(=O)(=O)C(C)(C)C)cn23)s1` [Example 62, 5-(6-(tert-butylsulfonyl)-7-methoxyimidazo[1,2-a]pyridin-3-yl)-2-ethoxythiazole], the IC50 in assay [1] (setting [3]) was over 20 nM; in assay [2] it was over 1000 nM.
`COc1cc2ncc(-c3cc(N)c(OCCO)c(F)c3)n2cc1S(=O)(=O)C(C)(C)C` [Example 64, 2-(2-amino-4-(6-(tert-butylsulfonyl)-7-methoxyimidazo[1,2-a]pyridin-3-yl)-6-fluorophenoxy)ethan-1-ol]: the IC50 in assay [1] fell in the range of 2.5 to 20 nM; in assay [2], 50 to 250 nM.
The matching figures for `COc1cc2ncc(-c3cc(N)c(OC(F)F)c(F)c3)n2cc1S(=O)(=O)C(C)(C)C` [Example 65, 5-(6-(tert-butylsulfonyl)-7-methoxyimidazo[1,2-a]pyridin-3-yl)-2-(difluoromethoxy)-3-fluoroaniline]: 1 to 2.5 nM and 50 to 250 nM.
As for `CCOc1c(N)cc(-c2cnc3cc(OC)c(S(=O)(=O)C(C)(C)C)cn23)cc1F` [Example 66, 5-(6-(tert-butylsulfonyl)-7-methoxyimidazo[1,2-a]pyridin-3-yl)-2-ethoxy-3-fluoroaniline], the results for the IC50 in assay [1] (setting [3]) and in assay [2] were over 20 nM and over 1000 nM, respectively.
`COc1cc2ncc(-c3ccc(N4CCCC4=O)nc3)n2cc1S(=O)(=O)C(C)(C)C` [Example 67, 1-(5-(6-(tert-butylsulfonyl)-7-methoxyimidazo[1,2-a]pyridin-3-yl)pyridin-2-yl)pyrrolidin-2-one]: the values for the IC50 in assay [1] (setting [3]) and in assay [2] were over 20 nM and over 1000 nM, respectively.
Turning to `COc1cc2ncc(-c3cnc(N)c(C)c3)n2cc1S(=O)(=O)C(C)(C)C` [Example 68, 5-(6-(tert-butylsulfonyl)-7-methoxyimidazo[1,2-a]pyridin-3-yl)-3-methylpyridin-2-amine], the IC50 in assay [1] (setting [3]) is over 20 nM; in assay [2] it was over 1000 nM.
The corresponding values for `CNc1ccc(-c2cnc3cc(OC)c(S(=O)(=O)C(C)(C)C)cn23)cn1` [Example 69, 5-(6-(tert-butylsulfonyl)-7-methoxyimidazo[1,2-a]pyridin-3-yl)-N-methylpyridin-2-amine] are over 20 nM and over 1000 nM.
In the case of `COc1cc2ncc(-c3ccc(N)cn3)n2cc1S(=O)(=O)C(C)(C)C` [Example 71, 6-(6-(tert-butylsulfonyl)-7-methoxyimidazo[1,2-a]pyridin-3-yl)pyridin-3-amine], the concentration for half-maximal inhibition (IC50) in assay [1] (setting [3]) was over 20 nM; in assay [2], over 1000 nM.
Regarding `COc1cn2ncc(-c3ccc(N)nc3F)c2cc1S(=O)(=O)C(C)(C)C` [Example 72, 5-(5-(tert-butylsulfonyl)-6-methoxypyrazolo[1,5-a]pyridin-3-yl)-6-fluoropyridin-2-amine], the IC50 in assay [1] (setting [3]) was over 20 nM; in assay [2], over 1000 nM.
Take `COc1cc2ncc(-c3cnc(N)c(F)c3)n2cc1S(=O)(=O)C(C)(C)C` [Example 73, 5-(6-(tert-butylsulfonyl)-7-methoxyimidazo[1,2-a]pyridin-3-yl)-3-fluoropyridin-2-amine]: the IC50 in assay [1] (setting [3]) was over 20 nM; in assay [2], over 1000 nM.
On to `COc1cc2ncc(-c3cc(OC)c(N)nc3F)n2cc1S(=O)(=O)C(C)(C)C` [Example 74, 5-(6-(tert-butylsulfonyl)-7-methoxyimidazo[1,2-a]pyridin-3-yl)-6-fluoro-3-methoxypyridin-2-amine], for which the values for the IC50 in assay [1] and in assay [2] were 2.5 to 20 nM and over 1000 nM, respectively.
For `COc1cc2ncc(-c3cc(Cl)c(N)nc3F)n2cc1S(=O)(=O)C(C)(C)C` [Example 75, 5-(6-(tert-butylsulfonyl)-7-methoxyimidazo[1,2-a]pyridin-3-yl)-3-chloro-6-fluoropyridin-2-amine], the IC50 is 2.5 to 20 nM in assay [1] and 50 to 250 nM in assay [2].
